{"source": "patent US4148896A", "about": "“Antidepressant combination” (E. I. Du Pont de Nemours and Company, priority 1978, dated 1979)", "key": {"mice": {"system": "mice", "settings": "for NUMBER OF MICE DEAD: N=10; for Effect of amantadine on molindone toxicity (mortality): mice, oral"}, "[1]": {"system": "tetrabenazine-induced sedation", "assay": "Mouse antidepressant (antitetrabenazine) test: prevention of tetrabenazine-induced ptosis and loss of exploratory activity", "settings": "for ED50: Mus musculus, po; for No. of Mice Blocked, EXPLORATORY ACTIVITY / No. of Mice Blocked, PTOSIS: 1 h after amantadine"}, "mouse brain MAO [2]": {"target": "T1, mouse brain MAO (Mus musculus, UniProt Q64133)", "T1 sequence (Q64133 1-526)": "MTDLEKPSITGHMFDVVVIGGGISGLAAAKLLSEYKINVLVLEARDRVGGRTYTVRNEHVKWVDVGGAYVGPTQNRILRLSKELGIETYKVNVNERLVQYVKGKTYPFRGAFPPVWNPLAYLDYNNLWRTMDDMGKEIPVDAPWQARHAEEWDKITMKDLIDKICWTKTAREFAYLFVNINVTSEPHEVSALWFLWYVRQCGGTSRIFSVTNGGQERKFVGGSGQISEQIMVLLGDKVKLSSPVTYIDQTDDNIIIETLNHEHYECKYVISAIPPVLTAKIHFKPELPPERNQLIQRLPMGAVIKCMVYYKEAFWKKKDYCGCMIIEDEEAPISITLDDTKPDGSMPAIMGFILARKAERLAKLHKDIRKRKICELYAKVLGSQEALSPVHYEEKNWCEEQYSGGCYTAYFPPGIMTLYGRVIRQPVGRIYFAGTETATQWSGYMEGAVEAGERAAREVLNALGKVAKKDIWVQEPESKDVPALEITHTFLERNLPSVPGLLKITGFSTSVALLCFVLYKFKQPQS", "settings": "substrate 5 HT"}, "mouse brain MAO [3]": {"target": "T1, mouse brain MAO", "assay": "biochemical"}, "[4]": {"settings": "1 mg/kg oral (free base), 1 h, N=10"}, "[5]": {"settings": "3 mg/kg oral (free base), 1 h, N=10"}, "[6]": {"settings": "9 mg/kg oral (free base), 1 h, N=10"}, "[7]": {"settings": "20 mg/kg oral (free base), 0.5 h, N=20"}, "[8]": {"settings": "20 mg/kg oral (free base), 1 h, N=20"}, "[9]": {"settings": "20 mg/kg oral (free base), 2 h, N=20"}, "[10]": {"settings": "20 mg/kg oral (free base), 4 h, N=20"}, "[11]": {"settings": "27 mg/kg oral (free base), 1 h, N=10"}, "[12]": {"settings": "81 mg/kg oral (free base), 1 h, N=10"}, "[13]": {"settings": "amantadine 2 mg/kg oral alone, N=20"}, "[14]": {"settings": "amantadine 6 mg/kg oral alone, N=20"}, "[15]": {"settings": "amantadine 18 mg/kg oral alone, N=20"}, "[16]": {"settings": "amantadine 54 mg/kg oral alone, N=20"}, "[17]": {"settings": "amantadine alone, oral, 1 h, free base basis, N=20 (Table 2)"}}, "note": "Read-outs that look alike come from different tables or passages of the source.", "data": [{"smiles": "NC12CC3CC(CC(C3)C1)C2", "note": "[Amantadine, 1-adamantanamine]", "values": [{"measurement": "NUMBER OF MICE DEAD", "setting": "mice; amantadine 267 mg/kg oral alone, 0.5 h", "result": 0}, {"measurement": "NUMBER OF MICE DEAD", "setting": "mice; amantadine 267 mg/kg oral alone, 1 h", "result": 0}, {"measurement": "NUMBER OF MICE DEAD", "setting": "mice; amantadine 267 mg/kg oral alone, 2 h", "result": 0}, {"measurement": "NUMBER OF MICE DEAD", "setting": "mice; amantadine 267 mg/kg oral alone, 4 h", "result": 0}, {"measurement": "NUMBER OF MICE DEAD", "setting": "mice; amantadine 267 mg/kg oral alone, 24 h", "result": 0}, {"measurement": "NUMBER OF MICE DEAD", "setting": "mice; amantadine 267 mg/kg oral alone, 336 h", "result": 0}, {"measurement": "NUMBER OF MICE DEAD", "setting": "mice; amantadine 400 mg/kg oral alone, 0.5 h", "result": 1}, {"measurement": "NUMBER OF MICE DEAD", "setting": "mice; amantadine 400 mg/kg oral alone, 1 h", "result": 1}, {"measurement": "NUMBER OF MICE DEAD", "setting": "mice; amantadine 400 mg/kg oral alone, 2 h", "result": 1}, {"measurement": "NUMBER OF MICE DEAD", "setting": "mice; amantadine 400 mg/kg oral alone, 4 h", "result": 1}, {"measurement": "NUMBER OF MICE DEAD", "setting": "mice; amantadine 400 mg/kg oral alone, 24 h", "result": 1}, {"measurement": "NUMBER OF MICE DEAD", "setting": "mice; amantadine 400 mg/kg oral alone, 336 h", "result": 1}, {"measurement": "NUMBER OF MICE DEAD", "setting": "mice; amantadine 600 mg/kg oral alone, 0.5 h", "result": 4}, {"measurement": "NUMBER OF MICE DEAD", "setting": "mice; amantadine 600 mg/kg oral alone, 1 h", "result": 4}, {"measurement": "NUMBER OF MICE DEAD", "setting": "mice; amantadine 600 mg/kg oral alone, 2 h", "result": 4}, {"measurement": "NUMBER OF MICE DEAD", "setting": "mice; amantadine 600 mg/kg oral alone, 4 h", "result": 4}, {"measurement": "NUMBER OF MICE DEAD", "setting": "mice; amantadine 600 mg/kg oral alone, 24 h", "result": 5}, {"measurement": "NUMBER OF MICE DEAD", "setting": "mice; amantadine 600 mg/kg oral alone, 336 h", "result": 5}, {"measurement": "NUMBER OF MICE DEAD", "setting": "mice; amantadine 900 mg/kg oral alone, 0.5 h", "result": 8}, {"measurement": "NUMBER OF MICE DEAD", "setting": "mice; amantadine 900 mg/kg oral alone, 1 h", "result": 8}, {"measurement": "NUMBER OF MICE DEAD", "setting": "mice; amantadine 900 mg/kg oral alone, 2 h", "result": 8}, {"measurement": "NUMBER OF MICE DEAD", "setting": "mice; amantadine 900 mg/kg oral alone, 4 h", "result": 8}, {"measurement": "NUMBER OF MICE DEAD", "setting": "mice; amantadine 900 mg/kg oral alone, 24 h", "result": 8}, {"measurement": "NUMBER OF MICE DEAD", "setting": "mice; amantadine 900 mg/kg oral alone, 336 h", "result": 8}, {"measurement": "NUMBER OF MICE DEAD", "setting": "mice; amantadine 1350 mg/kg oral alone, 0.5 h", "result": 10}, {"measurement": "NUMBER OF MICE DEAD", "setting": "mice; amantadine 1350 mg/kg oral alone, 1 h", "result": 10}, {"measurement": "NUMBER OF MICE DEAD", "setting": "mice; amantadine 1350 mg/kg oral alone, 2 h", "result": 10}, {"measurement": "NUMBER OF MICE DEAD", "setting": "mice; amantadine 1350 mg/kg oral alone, 4 h", "result": 10}, {"measurement": "NUMBER OF MICE DEAD", "setting": "mice; amantadine 1350 mg/kg oral alone, 24 h", "result": 10}, {"measurement": "NUMBER OF MICE DEAD", "setting": "mice; amantadine 1350 mg/kg oral alone, 336 h", "result": 10}, {"measurement": "Effect of amantadine on molindone toxicity (mortality)", "setting": "mice", "result": "decreases the toxicity of molindone"}, {"measurement": "Effect of amantadine on molindone toxicity (mortality)", "setting": "mice; listed as amantadine hydrochloride", "result": "reduces molindone hydrochloride lethal toxicity"}, {"measurement": "NUMBER OF MICE BLOCKED, EXPLORATORY ACTIVITY", "setting": "[1]; [4]", "result": 0}, {"measurement": "NUMBER OF MICE BLOCKED, PTOSIS", "setting": "[1]; [4]", "result": 1}, {"measurement": "NUMBER OF MICE BLOCKED, EXPLORATORY ACTIVITY", "setting": "[1]; [5]", "result": 0}, {"measurement": "NUMBER OF MICE BLOCKED, PTOSIS", "setting": "[1]; [5]", "result": 1}, {"measurement": "NUMBER OF MICE BLOCKED, EXPLORATORY ACTIVITY", "setting": "[1]; [6]", "result": 4}, {"measurement": "NUMBER OF MICE BLOCKED, PTOSIS", "setting": "[1]; [6]", "result": 5}, {"measurement": "NUMBER OF MICE BLOCKED, EXPLORATORY ACTIVITY", "setting": "[1]; [7]", "result": 1}, {"measurement": "NUMBER OF MICE BLOCKED, PTOSIS", "setting": "[1]; [7]", "result": 4}, {"measurement": "NUMBER OF MICE BLOCKED, EXPLORATORY ACTIVITY", "setting": "[1]; [8]", "result": 8}, {"measurement": "NUMBER OF MICE BLOCKED, PTOSIS", "setting": "[1]; [8]", "result": 13}, {"measurement": "NUMBER OF MICE BLOCKED, EXPLORATORY ACTIVITY", "setting": "[1]; [9]", "result": 6}, {"measurement": "NUMBER OF MICE BLOCKED, PTOSIS", "setting": "[1]; [9]", "result": 11}, {"measurement": "NUMBER OF MICE BLOCKED, EXPLORATORY ACTIVITY", "setting": "[1]; [10]", "result": 0}, {"measurement": "NUMBER OF MICE BLOCKED, PTOSIS", "setting": "[1]; [10]", "result": 2}, {"measurement": "NUMBER OF MICE BLOCKED, EXPLORATORY ACTIVITY", "setting": "[1]; [11]", "result": 4}, {"measurement": "NUMBER OF MICE BLOCKED, PTOSIS", "setting": "[1]; [11]", "result": 7}, {"measurement": "NUMBER OF MICE BLOCKED, EXPLORATORY ACTIVITY", "setting": "[1]; [12]", "result": 8}, {"measurement": "NUMBER OF MICE BLOCKED, PTOSIS", "setting": "[1]; [12]", "result": 10}, {"measurement": "ED50", "setting": "[1]; 1 h, read-out: ED50, E[…], oral, free base basis, 1 h after drug (Table 1)", "result": 24, "unit": "mg/kg"}, {"measurement": "ED50", "setting": "[1]; 1 h, read-out: ED50, PTOSIS, oral, free base basis, 1 h after drug (Table 1)", "result": 9.6, "unit": "mg/kg"}, {"measurement": "No. of Mice Blocked, EXPLORATORY ACTIVITY", "setting": "[1]; [13]", "result": 0}, {"measurement": "No. of Mice Blocked, PTOSIS", "setting": "[1]; [13]", "result": 2}, {"measurement": "No. of Mice Blocked, EXPLORATORY ACTIVITY", "setting": "[1]; [14]", "result": 2}, {"measurement": "No. of Mice Blocked, PTOSIS", "setting": "[1]; [14]", "result": 4}, {"measurement": "No. of Mice Blocked, EXPLORATORY ACTIVITY", "setting": "[1]; [15]", "result": 12}, {"measurement": "No. of Mice Blocked, PTOSIS", "setting": "[1]; [15]", "result": 17}, {"measurement": "No. of Mice Blocked, EXPLORATORY ACTIVITY", "setting": "[1]; [16]", "result": 16}, {"measurement": "No. of Mice Blocked, PTOSIS", "setting": "[1]; [16]", "result": 19}, {"measurement": "ED50, EXPLORATORY ACTIVITY, Amantadine", "setting": "[1]; [17]", "result": 16.6, "unit": "mg/kg"}, {"measurement": "ED50, PTOSIS, Amantadine", "setting": "[1]; [17]", "result": 9.4, "unit": "mg/kg"}, {"measurement": "ED50, PTOSIS", "setting": "[1]; oral, free base basis, 1 h after drug (Table 1), 60 min", "result": 9.4, "unit": "mg/kg"}]}, {"smiles": "NNCCc1ccccc1", "note": "[PHENELZINE . SO4]", "values": [{"measurement": "% INHIBITION", "setting": "mouse brain MAO [2]; final conc. 10^-4 m/l", "result": 88, "unit": "%"}, {"measurement": "% INHIBITION", "setting": "mouse brain MAO [2]; final conc. 10^-5 m/l", "result": 81, "unit": "%"}, {"measurement": "% INHIBITION", "setting": "mouse brain MAO [2]; final conc. 10^-6 m/l", "result": 3, "unit": "%"}, {"measurement": "IC50", "setting": "mouse brain MAO [3]", "result": 4, "unit": "µM"}]}]}
